Data: US20250041245A1, “ENDOXIFEN FOR TREATMENT OF CANCERS” (Atossa Therapeutics, Inc., priority 2021, published 2025)
Where “and” joins values, the source holds several entries; their conditions need not be identical. Equal entries are not always repeated. Entries after “also recorded” stand apart in the source; their conditions may differ.

Tests used:
Format in all cases: cell-based, human
[1] = tested on: patient-derived tumor organoids (PDTOs), esophageal adenocarcinoma; assay: Endoxifen screen in PDTOs: esophageal adenocarcinoma; design: key to Personalization Category: Personalization categories range from High, Good, Moderate, Low, to None; Personalization categories range from High, Good, Moderate, Low, to None; Personalization categories range from High, Good, Moderate, Low, to None; Personalization categories range from High, Good, Moderate, Low, to None; Personalization categories range from High, Good, Moderate, Low, to None; AUC: unit not given beside the values
Method: (§1) This example describes screening endoxifen in patient-derived tumor organoids. Endoxifen was tested as a single agent on tumor organoids derived from patients diagnosed with various cancer types using a personalized cancer treatment screening assay (PARIS© Test, SEngine Precision Medicine). The screen utilized patient-derived tumor organoids (PDTOs) along with high-throughput drug screening and machine learning-guided data analysis to quantify the efficacy of endoxifen against samples derived from individual patients diagnosed with various cancer types. PDTOs are self-organizing, three-dimensional organoid structures that recapitulate structural, functional, and genomic aspects of in vivo organs. The PDTOs were grown in culture from patient tumor biopsy samples.
(§2) Fresh patient biopsy samples received following surgery were cleaned and purified. Immune cells (e.g., lymphocytes, blood cells), cancer-associated fibroblasts, and other non-tumor cells were removed to establish pure PDTOs for endoxifen testing. The tumor organoids were grown and expanded by supplying organ- and patient-specific growth factors and nutrients. The PDTOs were treated with increasing concentrations of endoxifen ranging from about 30 nM to about 10 μM, and the drug response was measured using a luminescence readout. A lower luminescence was indicative of a stronger drug response.
The results were analyzed using a “SEngine Precision Medicine” (SPM) scoring system to assess the sensitivity and personalization of each tumor organoid to endoxifen. […]
This example describes testing endoxifen efficacy against 17 distinct cancer types in patient-derived tumor organoids (PDTOs). […] For each PDTO sample, the drug response was measured using a luminescent readout over a range of endoxifen concentrations. The drug response was evaluated based on the area under the fitted dose response curve (AUC) and the SPM scoring system. […] The area under the curve was calculated from the normalized curve. […] The SPM scores were based on machine learning models that incorporate values for how well the drug kill patient cells (sensitivity metric), the relative drug responses of a patient to all other patients in a sample database (personalization metric), and knowledge of clinical outcomes for patients that had been evaluated with the personalized cancer screening assay (PARIS® Test, SEngine Precision Medicine).
The SPM scoring system evaluated whether a PDTO was unresponsive or responsive to endoxifen and the degree of drug response for PDTOs that were responsive to endoxifen. […] The sensitivity category was determined from the sensitivity metric and is a measure of overall cell death of a patient's cells in response to endoxifen at six concentrations. […]

[2] = tested on: patient-derived tumor organoids (PDTOs), pancreatic ductal adenocarcinoma; assay: Endoxifen screen in PDTOs: pancreatic ductal adenocarcinoma; design: key to Personalization Category: Personalization categories range from High, Good, Moderate, Low, to None; Personalization categories range from High, Good, Moderate, Low, to None; Personalization categories range from High, Good, Moderate, Low, to None; Personalization categories range from High, Good, Moderate, Low, to None; Personalization categories range from High, Good, Moderate, Low, to None; key to Sensitivity Category: Sensitivity categories range from High, Good, Moderate, Low, to None; Sensitivity categories range from High, Good, Moderate, Low, to None; Sensitivity categories range from High, Good, Moderate, Low, to None; Sensitivity categories range from High, Good, Moderate, Low, to None; Sensitivity categories range from High, Good, Moderate, Low, to None; AUC: unit not given beside the values; conditions: each line one patient sample; for IC50: four-parameter logistic fit
Method: as §1, §2
(§3) The results were analyzed using a “SEngine Precision Medicine” (SPM) scoring system to assess the sensitivity and personalization of each tumor organoid to endoxifen. The SPM score correlates with clinical outcomes, such that a higher SPM score for a specific PDTO-drug combination predicts a more favorable clinical outcome following treatment of the corresponding patient with the tested drug.
(§4) This example describes testing endoxifen efficacy against 17 distinct cancer types in patient-derived tumor organoids (PDTOs). Screening of PDTOs was performed as described in EXAMPLE 1. For each PDTO sample, the drug response was measured using a luminescent readout over a range of endoxifen concentrations. The drug response was evaluated based on the area under the fitted dose response curve (AUC) and the SPM scoring system. AUC values were normalized for each PDTO. Briefly, data points at each drug concentration were first normalized to a negative control, then a dose response drug curve was approximated using a four-parameter logistic model fitted to the normalized data points. The area under the curve was calculated from the normalized curve. Normalization allowed for comparison of AUC values between patient samples. The SPM scores were based on machine learning models that incorporate values for how well the drug kill patient cells (sensitivity metric), the relative drug responses of a patient to all other patients in a sample database (personalization metric), and knowledge of clinical outcomes for patients that had been evaluated with the personalized cancer screening assay (PARIS® Test, SEngine Precision Medicine).
(§5) The SPM scoring system evaluated whether a PDTO was unresponsive or responsive to endoxifen and the degree of drug response for PDTOs that were responsive to endoxifen. The SPM scoring system generated metrics an SPM score, predictive of clinical outcome, overall drug response (response category), drug sensitivity (sensitivity category), and drug personalization (personalization category). SPM scores ranged from 1-15, corresponding to the following drug response categories: no response (SPM 1-8), low response (SPM 9), moderate response (SPM 10-11), good response (SPM 12-13), and exceptional response (SPM 14-15). […] Moderate to good drug responses (SPM 10-13) may indicate that a drug has clinical relevance, possibly in combination with other drugs. The sensitivity category was determined from the sensitivity metric and is a measure of overall cell death of a patient's cells in response to endoxifen at six concentrations. […]

[3] = tested on: patient-derived tumor organoids (PDTOs), neuroblastoma; assay: Endoxifen screen in PDTOs: neuroblastoma; design: key to Personalization Category: Personalization categories range from High, Good, Moderate, Low, to None; Personalization categories range from High, Good, Moderate, Low, to None; Personalization categories range from High, Good, Moderate, Low, to None; Personalization categories range from High, Good, Moderate, Low, to None; Personalization categories range from High, Good, Moderate, Low, to None; key to Sensitivity Category: Sensitivity categories range from High, Good, Moderate, Low, to None; Sensitivity categories range from High, Good, Moderate, Low, to None; Sensitivity categories range from High, Good, Moderate, Low, to None; Sensitivity categories range from High, Good, Moderate, Low, to None; Sensitivity categories range from High, Good, Moderate, Low, to None; AUC: unit not given beside the values; conditions: each line one patient sample; for IC50: four-parameter logistic fit
Method: as §1, §2, §3, §4, §5

[4] = normalized area under fitted dose response curve

Structure (SMILES): CC/C(=C(\c1ccc(O)cc1)c1ccc(OCCNC)cc1)c1ccccc1 [Endoxifen, 4-hydroxy-N-desmethyltamoxifen]
- IC50 ([1]; Homo sapiens, Patient 14, four-parameter logistic fit): 3.97 µM
- Personalization Category ([1]; Patient 14): Good
- AUC ([1]; Patient 14, normalized area under fitted dose response curve): 0.7771
- SPM Score ([1]; Patient 14, score range 1-15): 11
- IC50 ([2]; Homo sapiens): 4.47 µM
- Personalization Category [2]: Good and Low and None
- Response Category [2]: Moderate (moderate response (SPM 10-11)); also recorded: Low (low response (SPM 9)); also recorded: None (no response (SPM 1-8))
- Sensitivity Category [2]: Low and None
- IC50 [2]: 5.83 µM
- AUC [2, 4]: 0.8283 and 0.8839 and 1.1358
- SPM Score ([2]; score range 1-15): 11 and 9 and 1
- IC50 ([3]; Homo sapiens): 5.73 µM
- Personalization Category [3]: Low and Moderate and None
- Response Category [3]: Low (low response (SPM 9)); also recorded: Moderate (moderate response (SPM 10-11)); also recorded: None (no response (SPM 1-8))
- Sensitivity Category [3]: Low and None
- IC50 [3]: 5.87 µM and 7.18 µM
- AUC [3, 4]: 0.8848 and 0.8184 and 0.9511
- SPM Score ([3]; score range 1-15): 9 and 10 and 1
